This is an account of results in patent publication US9694061B2, “Fully human antibodies to high molecular weight-melanoma associated antigen and uses thereof” (University of Pittsburgh—Of the Commonwealth System of …, priority 2008, dated 2017).

Experiment [1] deals with scFv C21. Nature of the experiment: Kinetic binding studies by surface plasmon resonance (BIACORE 3000). Also on record: species or system human. As to conditions: scFv C21 immobilized, 25° C., peptide 1 to 32 μM, 1:1 Langmurian model. As for the experimental part: Binding experiments were performed with the surface plasmon resonance based biosensor instrument BIACORE™ 3000 (Biacore AB, Uppsala, Sweden), at 25° C. Immobilization of scFv C21 in the sensor surface was performed following the standard amine coupling procedure according to the manufacturer's instructions. Briefly, 35 μl of a solution containing 0.2 M N-ethyl-N′-(dimethylaminopropyl) carbodiimide (EDC) and 0.05M N-hydroxysuccinimide (NHS), were injected at a flow rate of 5 μl/min to activate carboxyl groups on the sensor chip surface. scFv C21 ([…] of 10 mM NaOAc buffer, pH 5.0) was flowed over the chip surface at a flow rate of 20 μl/min until the desired bound protein level was reached. Unreacted scFv C21 was washed out and unreacted activated groups were blocked by the injection of 35 μl of 1 M ethanolamine at 5 μl/min. The final immobilization response of scFv C21 was 3,000 RU. A reference surface was generated simultaneously under the same conditions but without scFv C21 injection and used as a blank to correct for instrument and buffer artifacts. Peptides were injected at variable concentrations at different flow rates from 20-100 μl/min. Peptides binding to scFv C21 immobilized on the chip was monitored in real time.
To exclude that binding constants obtained from SPR were not affected by either rebinding of the analyte or mass transport effects, studies were repeated at different flow rates (20-100 μl/min). Kinetic constants obtained at both flow rates remained unchanged.
To evaluate binding, peptides P1C21 and P3C21 were injected at concentrations ranging from 1 to 32 μM. The resulting sensograms were used for estimation of the kinetic constants (kon and koff) by global fitting to the 1:1 Langmurian interaction model. The binding constant (Kd) was calculated for each peptide as a koff/kon ratio.

Experiment [2] deals with scFv C21. Nature of the experiment: ELISA of synthetic peptides immobilized on plate with scFv C21. In kind it is binding, human. As to conditions: peptide immobilized by 0.25% glutaraldehyde PBS. Here is the method:
FIG. 7. Reactivity in ELISA of scFv C21 with synthetic peptides derived from those isolated by panning the phage display peptide library X15 with scFv C21. Ninety-six well plates were coated for 2 h at 37° C. with synthetic peptides P1C21 ( ? ), P2C21 (125 μM) ( ? ), and P3C21 (125 μM) ( ? ), in 0.25% glutaradehyde-PBS. Following blocking with PBS-1% BSA, wells were incubated for 2 h at room temperature with 50 μl of PP scFv C21 at and 50 μl of biotinylated mAb 9E10 (2.5 μg/ml 1% BSA-PBS). Binding of scFv antibody to ? peptides was detected by addition of SA-HRP. Results are expressed as absorbance at […]. […]
The ELISA to test the reactivity of soluble scFv antibodies with synthetic peptides and melanoma cells and of mouse immune sera with melanoma cells and with peptides was performed as described (Desai et al., Cancer Res 58:2417-2425, 1998; Desai et al., J Immunol 165:3275-3283, 2000; Matsui et al., J Immunol 139:2088-2095, 1987). Results are expressed as absorbance of optical density (O.D.) at 450 nm. The competition assay to map the antigenic determinant recognized by scFv C21 was performed by mixing biotinylated scFv C21 (0.25 μg/well) with two-fold dilutions of mouse mAb or scFv PP or by mixing biotinylated mAb (at an optimal amount giving absorbance, measured at 450 nm of 1.0) with two fold dilutions of scFv PP. […]
In general terms: An ELISA detects its analyte on a solid surface through an enzyme-linked reagent.

Experiment [3] deals with scFv C21. Nature of the experiment: Inhibition by synthetic peptides of scFv C21 binding to Colo38 cells. The arrangement: species or system human. As to conditions: for Inhibition of the binding of scFv C21 to HMW-MAA+ melanoma cells Colo38: soluble peptide, FIG. 8. As for the experimental part: FIG. 8. Inhibition of the reactivity of scFv C21 with HMW-MAA^+ cells Colo38 by synthetic peptides P1C21 and P3C21 and by modified peptide P3C21. Varying concentrations of synthetic peptides P1C21 (-●-), P3C21(-▴-), P3A5 (-⋄-), P3V7 ( ? ) and P3S10 ( ? ) were incubated for 2 h at 4° C. with 50 μl of PP scFv (1:1600 dilution in 1% BSA-PBS) and 50 μl of biotinylated mAb 9E10 (2.5 μg/ml 1% BSA-PBS). The mixture was then transferred to wells containing cells Colo38. Binding of scFvC21 was detected using SA-HRP (top panel). Results are expressed as % inhibition. The unrelated peptide MART-1 (-∇-) and the scFv #28 (bottom panel) which recognizes an unrelated HMW-MAA determinant were used as specificity controls.
The ELISA to test the reactivity of soluble scFv antibodies with synthetic peptides and melanoma cells and of mouse immune sera with melanoma cells and with peptides was performed as described (Desai et al., Cancer Res 58:2417-2425, 1998; Desai et al., J Immunol 165:3275-3283, 2000; Matsui et al., J Immunol 139:2088-2095, 1987). Results are expressed as absorbance of optical density (O.D.) at 450 nm. The competition assay to map the antigenic determinant recognized by scFv C21 was performed by mixing biotinylated scFv C21 (0.25 μg/well) with two-fold dilutions of mouse mAb or scFv PP or by mixing biotinylated mAb (at an optimal amount giving absorbance, measured at 450 nm of 1.0) with two fold dilutions of scFv PP. […] Binding of biotinylated scFv antibodies and biotinylated mAb to target cells was measured by sequential incubation with SA-HRP and substrate as described (Noronha et al., J Immunol 161:2968-2976, 1998). The results are expressed as percent inhibition by mAb, scFv or peptide (competitor or inhibitor) of scFv or mAb binding to HMW-MAA^+ cells. The percent inhibition was calculated using the formula: % inhibition=((OD450 in the absence of inhibitor−OD450 in the presence of inhibitor)/OD450 in the absence of inhibitor)×100.

The test system of a further experiment is HMW-MAA^+ cells Colo38. In words: Delayed-type hypersensitivity (DTH) reaction in immunized mice. In kind it is in vivo, BALB/c mice. As to conditions: mice immunized six times, cells injected day 132. As for the experimental part:
FIG. 12. DTH reaction to HMW-MAA^+ melanoma cells Colo38 in BALB/c mice immunized with peptide P1C21. Irradiated (20K rads) HMW-MAA^+ cells Colo38 (5×10^5 cells/mouse) ( ? ) and HMW-MAA^− LG2 cells (5×10^5 cells/mouse) (□) were injected on day 132 into the right and left hind footpad, respectively, of BALB/c mice, which had been immunized six times with peptide P1C21 on days 0, 21, 42, 63, 84 and 105. Amount of swelling induced by the injected cells was measured and calculated by subtracting the thickness of the footpad measured at time 0 h from that measured 24 h after the injection of cells. Mice immunized with control peptide MB1194-208 using the same schedule were injected at the same time point with either Colo38 or LG2 cells, and used as controls. *p<0.05.
Mice which had been immunized six times with peptide P1C21 or control peptide were injected on day 132 s.c. into the right and left hind footpads with irradiated HMW-MAA^+ cells Colo38 (5×10^5 cells/injection/) and HMW-MAA^− cells LG2 (5×10^5 cells/injection/), respectively. The thickness of each footpad was measured and calculated at the indicated times as previously described (Luo et al., J Immunol 174:7104-7110, 2005, herein incorporated by reference).

Experiment [4] has as its system HMW-MAA^+ melanoma cells Colo38. In words: Immunization of BALB/c mice with peptide-KLH conjugate, HMW-MAA-specific antibodies in sera. In kind it is in vivo. As to conditions: control peptide immunization. As for the experimental part: FIG. 9. Development of antibodies with selective reactivity with HMW-MAA^+ cells Colo38 in BALB/c mice immunized with peptide P1C21 and boosted with Colo 38 cells. Mice were immunized with KLH-conjugated peptide P1C21 ( ? ) (50 μg/injection) on day 0, 21, 42, 63, 84 and 105, and with HMW-MAA^+ Colo38 melanoma cells (5×10^5 cells/injection) on day 132. Sera were harvested one week before the first immunization, and one week after each immunization. Two-fold dilutions of sera (100 μl/well) were incubated with HMW-MAA^+ Colo38 melanoma cells (1×10^5/well). Following an additional incubation with HRP-conjugated goat anti-mouse IgG antibodies, the reaction was developed using TMB substrate. O.D. was measured at 450 nm. Results are expressed as the mean±SD of the highest dilution of sera giving 50% of the maximal binding to HMW-MAA^+ cells. Sera from mice immunized with peptide MB1194-208 were used as controls. *p<0.05.
FIG. 10. Flow cytometry analysis of HMW-MAA^+ M14#5/HMW-MAA melanoma cells stained with antibodies elicited by peptide P1C21 and HMW-MAA^+ cells Colo38 in BALB/c mice. […] Cells were then analyzed with a FACScan™ flow cytometry. Results are expressed as fluorescence intensity (empty histogram). […]
FIG. 11. […] Antigens were eluted from the immunoadsorbent, and analyzed by SDS-PAGE in an 8% polyacrylamide gel. […]

In the experiment with scFv C21 [1], RPYRYDPLGDLKSRH [P3C21] displayed a Koff of 0.0655 s⁻¹ and a Kon of 2170 M⁻¹ s⁻¹. Further, the “Reactivity of immobilized synthetic peptide with scFv C21 in ELISA” value with scFv C21 [2] is on record as “did not”. Also, in the experiment with scFv C21 [3], the “Inhibition of the binding of scFv C21 to HMW-MAA+ melanoma cells Colo38” value is recorded as “inhibited the binding of scFv C21 to HMW-MAA^+ cells in a dose dependent fashion”.

“MB1194-208: irrelevant peptide derived from the sequence of the proteasome subunit MB1, used as control (AYGVMDRGYSYDLEV)”: in the experiment on HMW-MAA^+ cells Colo38, the “DTH response: swelling of footpad injected with Colo38 cells versus LG2 cells” value was “no swelling of the footpad was observed”. In addition, the “Reactivity of immune sera with Colo38 cells” value in experiment [4] is listed as “displayed no reactivity with Colo38 cells”.

RPYRYDPLGSLKSRH [P3S10]: in the experiment with scFv C21 [1], the Koff was 0.00307 s⁻¹ and the Kon was determined as 917 M⁻¹ s⁻¹. Moreover, the “Effect of Asp to Ser replacement at position 10 on ability of P3C21 to inhibit reactivity of scFv C21 with Colo38 cells” value with scFv C21 [3] (compared with P3C21) is reported as “only a slight effect”.

For “EARNWHDFPIHPRTL (listed as Homo sapiens) [P2C21]”, the “Reactivity of immobilized synthetic peptide with scFv C21 in ELISA” value in the experiment on scFv C21 [2] is recorded as “reacted specifically with scFv C21”. In addition, the “Inhibition of the binding of scFv C21 to HMW-MAA+ melanoma cells Colo38” value in the experiment with scFv C21 [3] was “did not inhibit the binding of scFv C21”.
